Laboratory results from paper PMC6499206, “Quantification of Volatile Metabolites Derived From Garlic (Allium sativum) in Human Urine” (Frontiers in Nutrition, 2019).

Test: Quantification of garlic-derived metabolites in human urine after ingestion of 3 g raw garlic (SIDA, SAFE, HRGC-MS / HRGC-GC-MS)
Assay type: in vivo
Conditions: for metabolite concentration in urine / metabolite concentration in urine, creatinine-normalized: 3 g raw garlic
From the text: Human urine samples were obtained from 18 volunteers (age 22–38 years, mean 27 years; 11 females, 7 males); thereby, one volunteer conducted the whole experimental series twice. At the time of examination, volunteers reported no known illness that might have potentially influenced the metabolism or the excretion of urine. The test persons were instructed to avoid foods that were rich in sulfur-containing substances at the testing day as well as 2 days preceding the testing day, namely garlic, onion, wild garlic, chives, cabbage, and leek, and were only allowed to consume the garlic sample provided in the course of the experiments. Additionally, subjects were asked to keep records of the food (including food supplements) and beverages they consumed during these 3 testing days. Generally, the overall panelists' requirements were in accordance with our previous studies ([5], [16]).
On the sampling day, the outer garlic cloves of a whole garlic bulb were peeled and cut into ~3 mm cubes by using a garlic cutter (Genius GmbH, Limburg/Lahn, Germany). Subsequently these cubes were thoroughly mixed and aliquoted into 3 g portions. Three to four test persons conducted the experiment at the same day. Each test person was asked to ingest a garlic portion of 3 g. In total, eight consecutive urine samples were provided by each test person, comprising one whole urine set. The samples were collected in sterile brown glass bottles, with sampling times as follows: one sample was provided directly prior to garlic consumption. The series of the second to eighth sample was then obtained at about 0.5, 1, 2, 4, 6, 8, and 24 h after garlic consumption, respectively. Between the first urine sample (prior to garlic consumption) and the seventh urine sample (8 h after garlic consumption) test persons only spent urine at the specific time points mentioned before. Another sample was provided at the next morning (24 h after garlic consumption). Between the samples provided 8 and 24 h after garlic consumption no urine was collected. All samples were immediately placed into a −80°C freezer and were kept frozen until further analysis.
The samples of each set were termed according to their sampling time. The following list provides the time intervals that are related to the respective sample name: • - pre: before garlic consumption • - 0.5 h post: 0.4–0.8 h after garlic consumption • - 1 h post: 0.9–1.3 h after garlic consumption • - 2 h post: 1.8 h−2.2 h after garlic consumption • - 4 h post: 3.8–4.4 h after garlic consumption • - 6 h post: 5.8–6.4 h after garlic consumption • - 8 h post: 7.8–8.4 h after garlic consumption • - 24 h post: 23.8–25.6 h after garlic consumption
A creatinine kit (Labor+Technik Eberhard Lehmann GmbH, Berlin, Germany) was used to determine the creatinine content in each urine sample. The determination principle of this kit is based on the reaction of creatinine with picric acid under basic conditions (Jaffé reaction). The formed complex was detected photometrically at a wavelength of 492 nm.
For quantification purposes, the deuterated standards ^2H3-AMS, ^2H3-AMSO, and ^2H3-AMSO2 were added to the sample and stirred for 10 min. Subsequently, DCM was added in a ratio of 1:2 (DCM/human urine; v/v) and this solution was stirred for further 30 min at room temperature. To isolate the volatile fraction from the urine samples we then applied SAFE-distillation ([17]), thereby distilling the respective samples at 50°C. After completion of the distillation process, 10 mL of DCM were applied in each case to rinse the SAFE apparatus and to ensure complete transition of the volatile compounds. This process was repeated with another 10 mL of DCM. After thawing, the obtained aqueous distillate phase was extracted three times with 25 mL DCM. The organic phases were combined, dried over anhydrous Na2SO4 and concentrated to a total volume of 100 μL by means of Vigreux distillation and subsequent micro-distillation at 50°C. […]

## C=CCS(C)(=O)=O [AMSO2, allyl methyl sulfone]
3 g raw garlic in both studies, milk data ref 20
  concentration in urine compared with human milk: about twice as high
U I, 0.5 h post (0.55 h)
  metabolite concentration in urine: 41.7 µg/kg
  metabolite concentration in urine, creatinine-normalized: 5.8 µg/mmol creatinine
U I, 1 h post (1.03 h)
  metabolite concentration in urine: 98.5 µg/kg
  metabolite concentration in urine, creatinine-normalized: 106.3 µg/mmol creatinine
U I, 2 h post (2.05 h)
  metabolite concentration in urine: 138.8 µg/kg
  metabolite concentration in urine, creatinine-normalized: 68.4 µg/mmol creatinine
U I, 4 h post (4.05 h)
  metabolite concentration in urine: 172.3 µg/kg
  metabolite concentration in urine, creatinine-normalized: 19.6 µg/mmol creatinine
U I, 6 h post (6.05 h)
  metabolite concentration in urine: 170.7 µg/kg
  metabolite concentration in urine, creatinine-normalized: 18.6 µg/mmol creatinine
U I, 8 h post (8.05 h)
  metabolite concentration in urine: 119.9 µg/kg
  metabolite concentration in urine, creatinine-normalized: 16.3 µg/mmol creatinine
U I, 24 h post (25.55 h)
  metabolite concentration in urine: 5.6 µg/kg
  metabolite concentration in urine, creatinine-normalized: 0.9 µg/mmol creatinine
U I, pre (-0.03 h)
  metabolite concentration in urine: < LOD^3
  metabolite concentration in urine, creatinine-normalized: < LOD^3
U II, 0.5 h post (0.50 h)
  metabolite concentration in urine: 32.4 µg/kg
  metabolite concentration in urine, creatinine-normalized: 3.0 µg/mmol creatinine
U II, 1 h post (1.00 h)
  metabolite concentration in urine: 68.0 µg/kg
  metabolite concentration in urine, creatinine-normalized: 26.1 µg/mmol creatinine
U II, 2 h post (2.00 h)
  metabolite concentration in urine: 62.1 µg/kg
  metabolite concentration in urine, creatinine-normalized: 61.0 µg/mmol creatinine
U II, 4 h post (4.00 h)
  metabolite concentration in urine: 75.1 µg/kg
  metabolite concentration in urine, creatinine-normalized: 13.8 µg/mmol creatinine
U II, 6 h post (6.00 h)
  metabolite concentration in urine: 61.7 µg/kg
  metabolite concentration in urine, creatinine-normalized: 6.8 µg/mmol creatinine
U II, 8 h post (8.00 h)
  metabolite concentration in urine: 41.3 µg/kg
  metabolite concentration in urine, creatinine-normalized: 4.9 µg/mmol creatinine
U II, 24 h post (24.12 h)
  metabolite concentration in urine: 1.9 µg/kg
  metabolite concentration in urine, creatinine-normalized: 0.1 µg/mmol creatinine
U II, pre (-0.13 h)
  metabolite concentration in urine: < LOD^3
  metabolite concentration in urine, creatinine-normalized: < LOD^3
U III, 0.5 h post (0.53 h)
  metabolite concentration in urine: 41.9 µg/kg
  metabolite concentration in urine, creatinine-normalized: 24.9 µg/mmol creatinine
U III, 1 h post (1.07 h)
  metabolite concentration in urine: 83.3 µg/kg
  metabolite concentration in urine, creatinine-normalized: 117.5 µg/mmol creatinine
U III, 2 h post (2.18 h)
  metabolite concentration in urine: 145.2 µg/kg
  metabolite concentration in urine, creatinine-normalized: 89.7 µg/mmol creatinine
U III, 4 h post (4.35 h)
  metabolite concentration in urine: 168.2 µg/kg
  metabolite concentration in urine, creatinine-normalized: 63.4 µg/mmol creatinine
U III, 6 h post (6.35 h)
  metabolite concentration in urine: 134.9 µg/kg
  metabolite concentration in urine, creatinine-normalized: 26.1 µg/mmol creatinine
U III, 8 h post (8.43 h)
  metabolite concentration in urine: 86.7 µg/kg
  metabolite concentration in urine, creatinine-normalized: 15.3 µg/mmol creatinine
U III, 24 h post (23.90 h)
  metabolite concentration in urine: 5.6 µg/kg
  metabolite concentration in urine, creatinine-normalized: 0.9 µg/mmol creatinine
U III, pre (-0.03 h)
  metabolite concentration in urine: 7.3 µg/kg
  metabolite concentration in urine, creatinine-normalized: 1.3 µg/mmol creatinine
U IV, 0.5 h post (0.55 h)
  metabolite concentration in urine: 31.0 µg/kg
  metabolite concentration in urine, creatinine-normalized: 6.6 µg/mmol creatinine
U IV, 1 h post (1.05 h)
  metabolite concentration in urine: 63.2 µg/kg
  metabolite concentration in urine, creatinine-normalized: 52.7 µg/mmol creatinine
U IV, 2 h post (2.12 h)
  metabolite concentration in urine: 82.8 µg/kg
  metabolite concentration in urine, creatinine-normalized: 52.5 µg/mmol creatinine
U IV, 4 h post (4.05 h)
  metabolite concentration in urine: 108.4 µg/kg
  metabolite concentration in urine, creatinine-normalized: 22.3 µg/mmol creatinine
U IV, 6 h post (6.08 h)
  metabolite concentration in urine: 96.7 µg/kg
  metabolite concentration in urine, creatinine-normalized: 6.9 µg/mmol creatinine
U IV, 8 h post (8.05 h)
  metabolite concentration in urine: 73.4 µg/kg
  metabolite concentration in urine, creatinine-normalized: 15.4 µg/mmol creatinine
U IV, 24 h post (24.03 h)
  metabolite concentration in urine: 6.8 µg/kg
  metabolite concentration in urine, creatinine-normalized: 0.7 µg/mmol creatinine
U IV, pre (-0.05 h)
  metabolite concentration in urine: < LOD^3
  metabolite concentration in urine, creatinine-normalized: < LOD^3
U IX, 0.5 h post (0.67 h)
  metabolite concentration in urine: 54.8 µg/kg
  metabolite concentration in urine, creatinine-normalized: 52.1 µg/mmol creatinine
U IX, 1 h post (1.17 h)
  metabolite concentration in urine: 161.7 µg/kg
  metabolite concentration in urine, creatinine-normalized: 167.7 µg/mmol creatinine
U IX, 2 h post (1.83 h)
  metabolite concentration in urine: 248.6 µg/kg
  metabolite concentration in urine, creatinine-normalized: 236.2 µg/mmol creatinine
U IX, 4 h post (4.17 h)
  metabolite concentration in urine: 367.0 µg/kg
  metabolite concentration in urine, creatinine-normalized: 70.5 µg/mmol creatinine
U IX, 6 h post (6.08 h)
  metabolite concentration in urine: 343.5 µg/kg
  metabolite concentration in urine, creatinine-normalized: 107.8 µg/mmol creatinine
U IX, 8 h post (8.08 h)
  metabolite concentration in urine: 269.3 µg/kg
  metabolite concentration in urine, creatinine-normalized: 19.2 µg/mmol creatinine
U IX, 24 h post (24.00 h)
  metabolite concentration in urine: 5.9 µg/kg
  metabolite concentration in urine, creatinine-normalized: 0.7 µg/mmol creatinine
U IX, pre (-0.08 h)
  metabolite concentration in urine: < LOD^3
  metabolite concentration in urine, creatinine-normalized: < LOD^3
U V, 0.5 h post (0.50 h)
  metabolite concentration in urine: 33.9 µg/kg
  metabolite concentration in urine, creatinine-normalized: 49.6 µg/mmol creatinine
U V, 1 h post (1.00 h)
  metabolite concentration in urine: 80.4 µg/kg
  metabolite concentration in urine, creatinine-normalized: 96.0 µg/mmol creatinine
U V, 2 h post (2.00 h)
  metabolite concentration in urine: 111.3 µg/kg
  metabolite concentration in urine, creatinine-normalized: 132.8 µg/mmol creatinine
U V, 4 h post (4.00 h)
  metabolite concentration in urine: 142.9 µg/kg
  metabolite concentration in urine, creatinine-normalized: 46.1 µg/mmol creatinine
U V, 6 h post (6.00 h)
  metabolite concentration in urine: 151.3 µg/kg
  metabolite concentration in urine, creatinine-normalized: 30.1 µg/mmol creatinine
U V, 8 h post (8.00 h)
  metabolite concentration in urine: 99.4 µg/kg
  metabolite concentration in urine, creatinine-normalized: 45.8 µg/mmol creatinine
U V, 24 h post (24.00 h)
  metabolite concentration in urine: 5.1 µg/kg
  metabolite concentration in urine, creatinine-normalized: 0.9 µg/mmol creatinine
U V, pre (-0.05 h)
  metabolite concentration in urine: < LOD^3
  metabolite concentration in urine, creatinine-normalized: < LOD^3
U VI, 0.5 h post (0.50 h)
  metabolite concentration in urine: 74.1 µg/kg
  metabolite concentration in urine, creatinine-normalized: 33.9 µg/mmol creatinine
U VI, 1 h post (1.00 h)
  metabolite concentration in urine: 87.6 µg/kg
  metabolite concentration in urine, creatinine-normalized: 73.1 µg/mmol creatinine
U VI, 2 h post (2.00 h)
  metabolite concentration in urine: 136.6 µg/kg
  metabolite concentration in urine, creatinine-normalized: 123.2 µg/mmol creatinine
U VI, 4 h post (4.00 h)
  metabolite concentration in urine: 150.1 µg/kg
  metabolite concentration in urine, creatinine-normalized: 43.2 µg/mmol creatinine
U VI, 6 h post (6.00 h)
  metabolite concentration in urine: 147.1 µg/kg
  metabolite concentration in urine, creatinine-normalized: 27.1 µg/mmol creatinine
U VI, 8 h post (8.00 h)
  metabolite concentration in urine: 106.7 µg/kg
  metabolite concentration in urine, creatinine-normalized: 21.2 µg/mmol creatinine
U VI, 24 h post (24.17 h)
  metabolite concentration in urine: 9.2 µg/kg
  metabolite concentration in urine, creatinine-normalized: 0.6 µg/mmol creatinine
U VI, pre (-0.05 h)
  metabolite concentration in urine: < LOD^3
  metabolite concentration in urine, creatinine-normalized: < LOD^3
U VII, 0.5 h post (0.50 h)
  metabolite concentration in urine: 44.1 µg/kg
  metabolite concentration in urine, creatinine-normalized: 41.3 µg/mmol creatinine
